# Experimental data as given in PubChem BioAssay (NCI).
#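 Values below derive from 48-hour exposures of cells grown in 96-well plates, with endpoints linearly interpolated between the two concentrations bracketing the appropriate inhibition level. GI50 is the concentration that inhibits growth by half. TGI is the concentration that stops growth completely.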
# How the values were obtained:
# Experiment in all cases: DTP human tumour cell line panel, 48 h
# [1] = test system: OVCAR-5 ovarian
# [2] = test system: SW-620 colon
# [3] = test system: NCI/ADR-RES ovarian
# [4] = test system: MDA-MB-231 breast
# [5] = test system: COLO 205 colon
# [6] = test system: EKVX NSCLC
# [7] = test system: UO-31 renal
# [8] = test system: SK-MEL-2 melanoma
# [9] = test system: SNB-19 CNS
# [10] = test system: IGROV1 ovarian
# [11] = test system: BT-549 breast
# [12] = test system: KM12 colon
# [13] = test system: MDA-MB-435
# [14] = test system: ACHN renal
# [15] = test system: NCI-H23 lung
# [16] = test system: HCC-2998 colon
# [17] = test system: UACC-62 melanoma
# [18] = test system: HS 578T breast
# [19] = test system: MCF7 breast
# [20] = test system: SK-MEL-28 melanoma
# [21] = test system: HOP-92 NSCLC
# [22] = test system: HCT-116 colon
# [23] = test system: MOLT-4 leukemia
# [24] = test system: SF-295 CNS
# [25] = test system: A549 NSCLC
# [26] = test system: SR leukemia
# [27] = test system: SF-268 CNS
# [28] = test system: LOX IMVI melanoma
# [29] = test system: UACC-257 melanoma
# [30] = test system: DU-145 prostate
# [31] = test system: OVCAR-8 ovarian
# [32] = test system: HL-60(TB) leukemia
# [33] = test system: A498 renal
# [34] = test system: HCT-15 colon
# [35] = test system: SK-OV-3 ovarian
# [36] = test system: HT29 colon
# [37] = test system: MDA-MB-468 breast
# [38] = test system: 786-0 renal
# [39] = test system: SN12C renal
# [40] = test system: MALME-3M melanoma
# [41] = test system: NCI-H522 lung
# [42] = test system: T-47D breast
# [43] = test system: SNB-75 CNS
# [44] = test system: OVCAR-4 ovarian
# [45] = test system: CAKI-1 renal
# [46] = test system: SF-539 CNS
# [47] = test system: RPMI-8226 leukemia
# [48] = test system: U251 CNS
# [49] = test system: CCRF-CEM leukemia
# [50] = test system: NCI-H460 lung
# [51] = test system: HOP-62 NSCLC
# [52] = test system: TK-10 renal
# [53] = test system: SK-MEL-5 melanoma
# [54] = test system: OVCAR-3 ovarian
# [55] = test system: PC-3 prostate
# [56] = test system: K-562 leukemia
# [57] = test system: M14 melanoma
# [58] = test system: NCI-H226 lung
# [59] = test system: RXF 393 renal
smiles,measurement,setting,value
Cc1ccc(Cl)cc1NC(=O)N/C(N)=N/c1nc2ccccc2s1,GI50,[1],0.131 µM
same,TGI,[1],4.96 µM
same,GI50,[2],0.0445 µM
same,TGI,[2],14.4 µM
same,GI50,[3],0.023 µM
same,TGI,[3],0.0549 µM
same,GI50,[4],0.0392 µM
same,TGI,[4],0.278 µM
same,GI50,[5],0.0679 µM
same,TGI,[5],0.285 µM
same,GI50,[6],0.109 µM
same,TGI,[6],15.2 µM
same,GI50,[7],0.0593 µM
same,TGI,[7],10.2 µM
same,GI50,[8],0.095 µM
same,TGI,[8],0.941 µM
same,GI50,[9],0.0665 µM
same,TGI,[9],15.2 µM
same,GI50,[10],0.0992 µM
same,TGI,[10],2.86 µM
same,GI50,[11],0.183 µM
same,TGI,[11],1.37 µM
same,GI50,[12],0.0455 µM
same,TGI,[12],7.12 µM
same,GI50,[13],0.0203 µM
same,TGI,[13],0.0435 µM
same,GI50,[14],0.0794 µM
same,TGI,[14],6.37 µM
same,GI50,[15],0.0452 µM
same,TGI,[15],3.57 µM
same,GI50,[16],0.0676 µM
same,TGI,[16],1.11 µM
same,GI50,[17],0.0467 µM
same,TGI,[17],5.53 µM
same,GI50,[18],0.0343 µM
same,TGI,[18],22.7 µM
same,GI50,[19],0.199 µM
same,TGI,[19],11.4 µM
same,GI50,[20],0.608 µM
same,TGI,[20],19.9 µM
same,GI50,[21],1.17 µM
same,TGI,[21],10.9 µM
same,GI50,[22],0.0371 µM
same,TGI,[22],0.696 µM
same,GI50,[23],0.0603 µM
same,TGI,[23],8.4 µM
same,GI50,[24],0.0299 µM
same,TGI,[24],1.3 µM
same,GI50,[25],0.115 µM
same,TGI,[25],4.5 µM
same,GI50,[26],0.0513 µM
same,GI50,[27],0.493 µM
same,TGI,[27],26.6 µM
same,GI50,[28],0.0619 µM
same,TGI,[28],1.52 µM
same,GI50,[29],6.47 µM
same,TGI,[29],33.2 µM
same,GI50,[30],0.0471 µM
same,TGI,[30],2.85 µM
same,GI50,[31],0.0438 µM
same,TGI,[31],2.08 µM
same,GI50,[32],0.0309 µM
same,TGI,[32],0.843 µM
same,GI50,[33],12.4 µM
same,TGI,[33],25.8 µM
same,GI50,[34],0.0405 µM
same,TGI,[34],3 µM
same,GI50,[35],0.0624 µM
same,TGI,[35],4.73 µM
same,GI50,[36],0.0289 µM
same,TGI,[36],0.118 µM
same,GI50,[37],0.217 µM
same,TGI,[37],0.65 µM
same,GI50,[38],0.0641 µM
same,TGI,[38],4.02 µM
same,GI50,[39],0.0641 µM
same,TGI,[39],2.44 µM
same,GI50,[40],0.0544 µM
same,TGI,[40],12 µM
same,GI50,[41],0.0247 µM
same,TGI,[41],0.0883 µM
same,GI50,[42],1.32 µM
same,TGI,[42],53.2 µM
same,GI50,[43],0.125 µM
same,TGI,[43],9.29 µM
same,GI50,[44],1.58 µM
same,TGI,[44],16.3 µM
same,GI50,[45],0.0456 µM
same,TGI,[45],6.66 µM
same,GI50,[46],0.0222 µM
same,TGI,[46],0.0547 µM
same,GI50,[47],0.0425 µM
same,TGI,[47],6.19 µM
same,GI50,[48],0.037 µM
same,TGI,[48],3.67 µM
same,GI50,[49],0.0371 µM
same,TGI,[49],7.47 µM
same,GI50,[50],0.0391 µM
same,TGI,[50],1.32 µM
same,GI50,[51],0.0508 µM
same,TGI,[51],2.98 µM
same,GI50,[52],4.95 µM
same,TGI,[52],16.6 µM
same,GI50,[53],0.0332 µM
same,TGI,[53],0.136 µM
same,GI50,[54],0.0368 µM
same,TGI,[54],1.33 µM
same,GI50,[55],0.0551 µM
same,TGI,[55],11.3 µM
same,GI50,[56],0.0346 µM
same,TGI,[56],> 33.9 µM
same,GI50,[57],0.0256 µM
same,TGI,[57],0.523 µM
same,GI50,[58],0.187 µM
same,TGI,[58],2.55 µM
COc1cnc2c(c1)C(=O)c1c-2n(CCCNCCO)c(=O)c2cc(F)ccc12,GI50,[1],0.661 µM
same,TGI,[1],2.42 µM
same,GI50,[2],0.367 µM
same,TGI,[2],2.61 µM
same,GI50,[59],0.885 µM
same,TGI,[59],2.54 µM
same,GI50,[3],0.678 µM
same,TGI,[3],2.58 µM
same,GI50,[4],1.64 µM
same,TGI,[4],4.1 µM
same,GI50,[5],0.838 µM
same,TGI,[5],2.77 µM
same,GI50,[6],1.21 µM
same,TGI,[6],5.14 µM
same,GI50,[7],0.195 µM
same,TGI,[7],1.17 µM
same,GI50,[8],2.36 µM
same,TGI,[8],4.36 µM
same,GI50,[9],0.666 µM
same,TGI,[9],8.06 µM
same,GI50,[10],0.51 µM
same,TGI,[10],2.68 µM
same,GI50,[11],0.969 µM
same,TGI,[11],4.04 µM
same,GI50,[12],0.872 µM
same,TGI,[12],10.5 µM
same,GI50,[13],1.27 µM
same,TGI,[13],4.52 µM
same,GI50,[14],0.175 µM
same,TGI,[14],0.465 µM
same,GI50,[15],0.259 µM
same,TGI,[15],0.785 µM
same,GI50,[16],0.549 µM
same,TGI,[16],1.7 µM
same,GI50,[17],0.496 µM
same,TGI,[17],1.83 µM
same,GI50,[18],2.02 µM
same,TGI,[18],12.4 µM
same,GI50,[19],0.101 µM
same,TGI,[19],1.7 µM
same,GI50,[20],1.92 µM
same,TGI,[20],5.69 µM
same,GI50,[21],1.66 µM
same,TGI,[21],7.26 µM
same,GI50,[22],0.183 µM
same,TGI,[22],0.657 µM
same,GI50,[23],0.174 µM
same,TGI,[23],0.757 µM
same,GI50,[24],0.306 µM
same,TGI,[24],1.23 µM
same,GI50,[25],0.198 µM
same,TGI,[25],1.1 µM
same,GI50,[26],0.0971 µM
same,GI50,[27],1.2 µM
same,TGI,[27],11 µM
same,GI50,[28],0.167 µM
same,TGI,[28],0.502 µM
same,GI50,[29],2.13 µM
same,TGI,[29],7.97 µM
same,GI50,[30],0.287 µM
same,TGI,[30],3.59 µM
same,GI50,[31],0.555 µM
same,TGI,[31],2.79 µM
same,GI50,[32],0.19 µM
same,TGI,[32],1.37 µM
same,GI50,[33],1.44 µM
same,TGI,[33],7.88 µM
same,GI50,[34],0.328 µM
same,TGI,[34],1.56 µM
same,GI50,[35],0.668 µM
same,TGI,[35],2.45 µM
same,GI50,[36],0.3 µM
same,TGI,[36],1.38 µM
same,GI50,[37],0.16 µM
same,TGI,[37],0.351 µM
same,GI50,[38],0.277 µM
same,TGI,[38],0.962 µM
same,GI50,[39],0.287 µM
same,TGI,[39],1.56 µM
same,GI50,[40],0.851 µM
same,TGI,[40],2.56 µM
same,GI50,[41],0.42 µM
same,TGI,[41],1.83 µM
same,GI50,[42],0.269 µM
same,TGI,[42],1.55 µM
same,GI50,[43],0.778 µM
same,TGI,[43],5.31 µM
same,GI50,[44],1.71 µM
same,TGI,[44],8.65 µM
same,GI50,[45],0.22 µM
same,TGI,[45],1.68 µM
same,GI50,[46],0.326 µM
same,TGI,[46],1.22 µM
same,GI50,[47],0.25 µM
same,TGI,[47],1.88 µM
same,GI50,[48],0.268 µM
same,TGI,[48],3.24 µM
same,GI50,[49],0.206 µM
same,TGI,[49],0.966 µM
same,GI50,[50],0.198 µM
same,TGI,[50],0.908 µM
same,GI50,[51],0.207 µM
same,TGI,[51],0.605 µM
same,GI50,[52],1.47 µM
same,TGI,[52],4.18 µM
same,GI50,[53],0.477 µM
same,TGI,[53],1.64 µM
same,GI50,[54],0.819 µM
same,TGI,[54],6.51 µM
same,GI50,[55],0.667 µM
same,TGI,[55],10.5 µM
same,GI50,[56],0.28 µM
same,TGI,[56],6.05 µM
same,GI50,[57],0.589 µM
same,TGI,[57],2.41 µM
same,GI50,[58],0.452 µM
same,TGI,[58],1.32 µM
